Experimental findings from patent US10800772B2 (Gilead Sciences, Inc., priority 2016, dated 2020) are described below.

The term EC50 denotes the midpoint of the concentration-response curve. One may read the half-life as the time in which the quantity being followed falls by half.

Like-named read-outs stand apart in the source and are kept apart here.

In data set [1] the test system is HIV-IIIb IN T174I BT. The data set can be described thus: Antiviral assay in MT4 cells, HIV-IIIb IN T174I BT virus (from viral breakthrough). It is filed as cell-based, HIV-1. The conditions noted are these: Human immunodeficiency virus 1, IIIB, MT4, 120 h, read-out: T174I BT EC50, MT4 cells, HIV-IIIb IN T174I BT (viral breakthrough), 5 days, CellTiter-Glo. An outline of the steps:
(§1)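 Each EC50 is the compound concentration that reduced CellTiter-Glo luminescence by 50% after 5 days of culture of HIV-IIIb-infected MT4 cells. Infection was at 0.004 m.o.i. with 3 h pre-incubation. Testing used 10 concentrations in quadruplicate.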
Background: ATP-based viability assays read luminescence as a measure of living cells.

The subject of data set [2] is HIV-IIIb (wildtype). Briefly: Antiviral assay in MT4 cells, HIV-IIIb wildtype. It is filed as cell-based, HIV-1. The conditions noted are these: read-out: WT EC50. An outline of the steps:
as §1

Data set [3] in a line: Hum MS stability (human microsomal stability half-life). To be noted: human microsomes.
Data set [4] relates to HIV-IIIb IN T174I DE. Briefly: Antiviral assay in MT4 cells, HIV-IIIb IN T174I DE virus (from dose escalation passaging). It is filed as cell-based, HIV-1. To be noted: Human immunodeficiency virus 1, IIIB, MT4, 120 h, read-out: T174I DE EC50, MT4 cells, HIV-IIIb IN T174I DE (dose escalation), 5 days, CellTiter-Glo. An outline of the steps:
as §1

Setting [5] is: Human immunodeficiency virus 1, IIIB, MT4, 120 h.

`COCCN1C(=O)N(c2nn(C)c3ccc(-c4nc5cc(C)c([C@H](OC(C)(C)C)C(=O)O)c(-c6ccc(Cl)cc6)c5s4)cc23)CC1(C)C` [Compound 123, (S)-2-(tert-butoxy)-2-(7-(4-chlorophenyl)-2-(3-(3-(2-methoxyethyl)-4,4-dimethyl-2-oxoimidazolidin-1-yl)-1-methyl-1H-indazol-5-yl)-5-methylbenzo[d]thiazol-6-yl)acetic acid]: the EC50 was found to be 1.45 µM in data set [1], 0.011 µM in data set [2] (setting [5]) and 7.09 µM in data set [4]. Also, the half-life in data set [3] is 1.6 h.

Take `CC(=O)N1CC(N2CCC(c3nn(C)c4ccc(-c5nc6cc(C)c([C@H](OC(C)(C)C)C(=O)O)c(-c7ccc(Cl)cc7)c6s5)nc34)CC2)C1` [Compound 185, (S)-2-(2-(3-(1-(1-acetylazetidin-3-yl)piperidin-4-yl)-1-methyl-1H-pyrazolo[4,3-b]pyridin-5-yl)-7-(4-chlorophenyl)-5-methylbenzo [d]thiazol-6-yl)-2-(tert-butoxy) acetic acid]: the EC50 in data set [1] turned out to be 0.035 µM; in data set [2] (setting [5]), 0.001 µM; in data set [4] it was 0.066 µM. In data set [3], this molecule returned a half-life of 0.6 h.

For `Cc1cc2nc(-c3ccc4c(n3)c(C3CCN(CCN(C)C)CC3)nn4C)sc2c(-c2ccc(Cl)cc2)c1[C@H](OC(C)(C)C)C(=O)O` [Compound 173, (S)-2-(tert-butoxy)-2-(7-(4-chloro-phenyl)-2-(3-(1-(2-(dimethylamino)ethyl)piperidin-4-yl)-1-methyl-1H-pyrazolo[4,3-b]pyridin-5-yl)-5-methylbenzo[d]thiazol-6-yl) acetic acid], the figures for the EC50 in data set [1], in data set [2] (setting [5]) and in data set [4] were 0.045 µM, 0.002 µM and 0.089 µM, respectively. The molecule further returned a half-life in data set [3] of 1.2 h.

Turning to `COCCN1CCC(c2nn(C)c3ccc(-c4nc5cc(C)c([C@H](OC(C)(C)C)C(=O)O)c(-c6ccc(Cl)cc6)c5s4)cc23)C1` (single isomer, unassigned) [Compound 69], the EC50 in data set [1] stood at 0.972 µM; in data set [2] (setting [5]), 0.005 µM; in data set [4] it was 1.15 µM. In data set [3], this molecule showed a half-life of 5.72 h.

Take `COCCN1CCCC(c2nn(C)c3ccc(-c4nc5cc(C)c([C@H](OC(C)(C)C)C(=O)O)c(-c6ccc(Cl)cc6)c5s4)cc23)C1` (stereo partly drawn) [Compound 77, (2S)-2-(tert-butoxy)-2-(7-(4-chlorophenyl)-2-(3-(1-(2-methoxyethyl)piperidin-3-yl)-1-methyl-1H-indazol-5-yl)-5-methylbenzo[d]thiazol-6-yl)acetic acid]: the EC50 in data set [1] turned out to be 1.81 µM; in data set [2] (setting [5]), 0.009 µM; in data set [4], 3.27 µM. Further, in data set [3], the half-life was determined as 2.17 h.

On to `Cc1cc2nc(-c3ccc4c(c3)c(C3CCN(C5CC(O)C5)CC3)nn4C)sc2c(-c2ccc(Cl)cc2)c1[C@H](OC(C)(C)C)C(=O)O` (stereo partly drawn) [Compound 156, (S)-2-(tert-butoxy)-2-(7-(4-chloro-phenyl)-2-(3-(1-((1s,3s)-3-hydroxy-cyclobutyl)piperidin-4-yl)-1-methyl-1H-indazol-5-yl)-5-methylbenzo[d]thiazol-6-yl) acetic acid], for which the EC50 in data set [1] came to 0.126 µM; in data set [2] (setting [5]), 0.011 µM; in data set [4] it was 0.197 µM. In data set [3], this molecule came in with a half-life of 4.95 h.

For the molecule `Cc1cc2nc(-c3ccc4c(n3)c(C3CCN(C5COC5)CC3)nn4C)sc2c(-c2ccc(Cl)cc2)c1[C@H](OC(C)(C)C)C(=O)O` [Compound 175, (S)-2-(tert-butoxy)-2-(7-(4-chloro-phenyl)-5-methyl-2-(1-methyl-3-(1-(oxetan-3-yl)piperidin-4-yl)-1H-pyrazolo [4,3-b]pyridin-5-yl)benzo[d]thiazol-6-yl) acetic acid], the figures for the EC50 in data set [1], in data set [2] (setting [5]) and in data set [4] were 0.122 µM, 0.003 µM and 0.252 µM, respectively. This molecule also gave a half-life in data set [3] of 5.95 h.

In the case of `Cc1cc2nc(-c3ccc4c(c3)c(C3CCN(C(=O)[C@H]5CCCO5)CC3)nn4C)sc2c(-c2ccc(Cl)cc2)c1[C@H](OC(C)(C)C)C(=O)O` [Compound 9, (S)-2-(tert-butoxy)-2-(7-(4-chlorophenyl)-5-methyl-2-(1-methyl-3-(1-((R)-tetrahydrofuran-2-carbonyl)piperidin-4-yl)-1H-indazol-5-yl)benzo[d]thiazol-6-yl)acetic Acid], the EC50 was determined as 0.237 µM in data set [1], 0.009 µM in data set [2] (setting [5]) and 0.511 µM in data set [4]. In data set [3], this molecule had a half-life of 4.17 h.

Regarding `COC1(C)CN(c2nn(C)c3ccc(-c4nc5cc(C)c([C@H](OC(C)(C)C)C(=O)O)c(-c6ccc(Cl)cc6)c5s4)cc23)C1` [Compound 131, (S)-2-(tert-butoxy)-2-(7-(4-chloro-phenyl)-2-(3-(3-methoxy-3-methylazetidin-1-yl)-1-methyl-1H-indazol-5-yl)-5-methylbenzo[d]thiazol-6-yl) acetic acid], the EC50 in data set [1] was 7.95 µM; in data set [2] (setting [5]), 0.01 µM; in data set [4], 3.74 µM. This molecule displayed a half-life in data set [3] of 4.15 h.

As for `COCCN(C)C1CN(c2nn(C)c3ccc(-c4nc5cc(C)c([C@H](OC(C)(C)C)C(=O)O)c(-c6ccc(Cl)cc6)c5s4)cc23)C1` [Compound 145, (S)-2-(tert-butoxy)-2-(7-(4-chloro-phenyl)-2-(3-(3-((2-methoxyethyl) (methyl)amino)azetidin-1-yl)-1-methyl-1H-indazol-5-yl)-5-methylbenzo[d]thiazol-6-yl) acetic acid], the EC50 in data set [1] was 1.59 µM; in data set [2] (setting [5]), 0.012 µM; in data set [4], 2.17 µM. In data set [3], this molecule gave a half-life of 2.15 h.

Turning to `Cc1cc2nc(-c3ccc4c(c3)c(C3CCN(C5COC5)CC3)nn4C)sc2c(-c2ccc(Cl)cc2)c1[C@H](OC(C)(C)C)C(=O)O` [Compound 1, (S)-2-(tert-butoxy)-2-(7-(4-chlorophenyl)-5-methyl-2-(1-methyl-3-(1-(oxetan-3-yl)piperidin-4-yl)-1H-indazol-5-yl)benzo[d]thiazol-6-yl)acetic Acid], the EC50 came to 0.143 µM in data set [1]; 0.005 µM in data set [2] (Human immunodeficiency virus 1, 120 h, MT4 cells, HIV-IIIb wildtype, 5 days, CellTiter-Glo); 0.315 µM in data set [4]. In data set [3], the half-life was determined as 5.83 h.

Turning to `Cc1cc2nc(-c3ccc4c(n3)c(N3CCN([C@H]5C[C@@H](O)C5)CC3)nn4C)sc2c(-c2ccc(Cl)cc2)c1[C@H](OC(C)(C)C)C(=O)O` [Compound 197, (S)-2-(tert-butoxy)-2-(7-(4-chloro-phenyl)-2-(3-(4-((1s,3s)-3-hydroxy-cyclobutyl)piperazin-1-yl)-1-methyl-1H-pyrazolo[4,3-b]pyridin-5-yl)-5-methylbenzo[d]thiazol-6-yl) acetic acid], the EC50 is 0.936 µM in data set [1], 0.018 µM in data set [2] (setting [5]) and 2.68 µM in data set [4]. The molecule also registered a half-life in data set [3] of 2.8 h.

`Cc1cc2nc(-c3ccc4c(c3)c(C3CCN([C@H]5CCN(C)C5)CC3)nn4C)sc2c(-c2ccc(Cl)cc2)c1[C@H](OC(C)(C)C)C(=O)O` [Compound 163, (S)-2-(tert-butoxy)-2-(7-(4-chloro-phenyl)-5-methyl-2-(1-methyl-3-(1-((S)-1-methyl-pyrrolidin-3-yl)piperidin-4-yl)-1H-indazol-5-yl)benzo[d]thiazol-6-yl)acetic acid]: the EC50 is 0.204 µM in data set [1], 0.02 µM in data set [2] (setting [5]) and 0.324 µM in data set [4]. In data set [3], this molecule displayed a half-life of 2.12 h.

`CC(=O)N1CCC(c2nn(C)c3ccc(-c4nc5cc(C)c([C@H](OC(C)(C)C)C(=O)O)c(-c6ccc(Cl)cc6)c5s4)cc23)C1` (stereo partly drawn) [Compound 74, (2S)-2-(2-(3-(1-acetylpyrrolidin-3-yl)-1-methyl-1H-indazol-5-yl)-7-(4-chlorophenyl)-5-methylbenzo[d]thiazol-6-yl)-2-(tert-butoxy)acetic acid]: the EC50 came out at 0.349 µM in data set [1], 0.01 µM in data set [2] (setting [5]) and 0.587 µM in data set [4]. Moreover, in data set [3], the half-life worked out at 3.32 h.

Regarding `Cc1cc2nc(-c3ccc4c(c3)c(N3CCN(C)C3=O)nn4C)sc2c(-c2ccc(Cl)cc2)c1[C@H](OC(C)(C)C)C(=O)O` [Compound 80, (S)-2-(tert-butoxy)-2-(7-(4-chlorophenyl)-5-methyl-2-(1-methyl-3-(3-methyl-2-oxoimidazolidin-1-yl)-1H-indazol-5-yl)benzo[d]thiazol-6-yl)acetic Acid], the EC50 was found to be 1.51 µM in data set [1], 0.013 µM in data set [2] (setting [5]) and 2.28 µM in data set [4]. The same molecule displayed a half-life in data set [3] of 5.42 h.

For the molecule `Cc1cc2nc(-c3ccc4c(c3)c(N3CCN(C)CC3)nn4C)sc2c(-c2ccc(Cl)cc2)c1[C@H](OC1CC1)C(=O)O` [Compound 103, (S)-2-(7-(4-chlorophenyl)-5-methyl-2-(1-methyl-3-(4-methylpiperazin-1-yl)-1H-indazol-5-yl)benzo[d]thiazol-6-yl)-2-cyclopropoxyacetic acid], the values for the EC50 in data set [1], in data set [2] (setting [5]) and in data set [4] were 0.267 µM, 0.032 µM and 0.367 µM, respectively. For the same molecule, in data set [3], the half-life turned out to be 2.47 h.

On to `COCCN1CCN(c2nn(C)c3ccc(-c4nc5cc(C)c([C@H](OC(C)(C)C)C(=O)O)c(-c6ccc(Cl)cc6)c5s4)cc23)CC1` [Compound 98, (S)-2-(tert-butoxy)-2-(7-(4-chlorophenyl)-2-(3-(4-(2-methoxyethyl)piperazin-1-yl)-1-methyl-1H-indazol-5-yl)-5-methylbenzo[d]thiazol-6-yl)acetic acid], for which the EC50 in data set [1] came to 0.29 µM; in data set [2] (setting [5]) it was 0.004 µM; in data set [4] it was 0.516 µM. Moreover, the half-life in data set [3] stood at 3.17 h.
